Test results reported in ChEMBL document CHEMBL1201862, “PubChem BioAssay data set” (2004).
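Tested at 5 concentrations; 48 h exposure; 96-well plates; endpoints linearly interpolated, else capped at highest concentration. The concentration for 50% growth inhibition is given as GI50.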 Activity calls are given as the source filed them. Rule as the data show it: active = GI50 up to about 1.1 µM and inactive = higher.

Key:
Experiment in all cases: inhibition of tumour cell growth, NCI panel, 48 h
RXF 393 = system: RXF 393
SW-620 = system: SW-620
MDA-MB-435 = system: MDA-MB-435
SK-MEL-2 = system: SK-MEL-2
UACC-257 = system: UACC-257
OVCAR-3 = system: OVCAR-3
M14 = system: M14
Malme-3M = system: Malme-3M
DU-145 = system: DU-145
MDA-N = system: MDA-N
U-251 = system: U-251
HCT-15 = system: HCT-15
NCI-H23 = system: NCI-H23
HT-29 = system: HT-29
HCC 2998 = system: HCC 2998
RPMI-8226 = system: RPMI-8226
EKVX = system: EKVX
HCT-116 = system: HCT-116
MOLT-4 = system: MOLT-4
NCI-H226 = system: NCI-H226

Row | Structure (SMILES) | GI50 (RXF 393) | GI50 (SW-620) | GI50 (MDA-MB-435) | GI50 (SK-MEL-2) | GI50 (UACC-257) | GI50 (OVCAR-3) | GI50 (M14) | GI50 (Malme-3M) | GI50 (DU-145) | GI50 (MDA-N) | GI50 (U-251) | GI50 (HCT-15) [µM] | GI50 (NCI-H23) | GI50 (HT-29) | GI50 (HCC 2998) | GI50 (RPMI-8226) | GI50 (EKVX) | GI50 (HCT-116) | GI50 (MOLT-4) | GI50 (NCI-H226)
1 | Cc1cnc(NCCCN(C)C)c2c1[nH]c1ccc3cc(O)ccc3c12 | 0.667 µM (active) | 0.166 µM (active) | 1.1 µM (active) | 1.03 µM (active) | 4.6 µM (inactive) | 0.505 µM (active) | 1.28 µM (inactive) | 0.879 µM (active) | 1.29 µM (inactive) | 1.04 µM (active) | 0.164 µM (active) | 4.63 | 0.499 µM (active) | 0.362 µM (active) | 0.326 µM (active) | 0.6 µM (active) | 1.49 µM (inactive) | 0.236 µM (active) | 0.0181 µM (active) | 0.435 µM (active)
2 | Cc1ccc2c(c1)OC1Nc3ccccc3C1=C2O (stereo not given) | 20.5 µM (inactive) | 29.2 µM (inactive) | 26.2 µM (inactive) | 16.9 µM (inactive) | 22.2 µM (inactive) | 3.86 µM (inactive) | 21.5 µM (inactive) | 74.8 µM (inactive) | 25.5 µM (inactive) | 24.7 µM (inactive) | 20.4 µM (inactive) | 25.1 | 23.7 µM (inactive) | 30 µM (inactive) | 14.2 µM (inactive) | 28 µM (inactive) | 17.4 µM (inactive) | 24.8 µM (inactive) | 32.1 µM (inactive) | 20.7 µM (inactive)
3 | CCOC(=O)CSc1nc2ccccc2c(=O)n1N | > 100 µM (inactive) | > 100 µM (inactive) | > 100 µM (inactive) | > 100 µM (inactive) | > 100 µM (inactive) | > 100 µM (inactive) | > 100 µM (inactive) | > 100 µM (inactive) | 40.9 µM (inactive) | > 100 µM (inactive) | > 100 µM (inactive) | > 100 | > 100 µM (inactive) | 68.4 µM (inactive) | 37.6 µM (inactive) | > 100 µM (inactive) | > 100 µM (inactive) | > 100 µM (inactive) | > 100 µM (inactive) | > 100 µM (inactive)
4 | COc1cc2c(NCCCCCO)ncnc2c(OC)c1OC | > 100 µM (inactive) | > 100 µM (inactive) | > 100 µM (inactive) | > 100 µM (inactive) | > 100 µM (inactive) | > 100 µM (inactive) | > 100 µM (inactive) | > 63 µM (inactive) | > 100 µM (inactive) | > 100 µM (inactive) | > 100 µM (inactive) | > 100 | > 100 µM (inactive) | > 100 µM (inactive) | > 100 µM (inactive) | > 93.1 µM (inactive) | > 100 µM (inactive) | > 100 µM (inactive) | > 100 µM (inactive) | 43.9 µM (inactive)
5 | COc1c(C(=O)/C(=N/Nc2ccc(C(=O)O)cc2)C(C)=O)c(O)cc2occc12 | 51.2 µM (inactive) | > 100 µM (inactive) | 46.7 µM (inactive) | > 100 µM (inactive) | > 100 µM (inactive) | > 100 µM (inactive) | > 100 µM (inactive) | 90.8 µM (inactive) | > 100 µM (inactive) | 35.7 µM (inactive) | > 100 µM (inactive) | 93.8 | > 100 µM (inactive) | > 100 µM (inactive) | > 100 µM (inactive) | > 100 µM (inactive) | > 100 µM (inactive) | > 100 µM (inactive) | > 100 µM (inactive) | > 100 µM (inactive)
6 | O=C1c2ccccc2C(=O)N1C(=S)c1ccccc1 | > 100 µM (inactive) | > 100 µM (inactive) | > 100 µM (inactive) | > 100 µM (inactive) | > 100 µM (inactive) | > 100 µM (inactive) | > 100 µM (inactive) | > 100 µM (inactive) | > 100 µM (inactive) | > 100 µM (inactive) | > 100 µM (inactive) | > 100 | > 100 µM (inactive) | > 100 µM (inactive) | > 100 µM (inactive) | > 100 µM (inactive) | > 100 µM (inactive) | > 100 µM (inactive) | > 100 µM (inactive) | > 100 µM (inactive)
7 | COC1N(C2CC(O)C(CO)O2)C(=O)NC(=O)C1(F)Br (stereo not given) | 46.7 µM (inactive) | 32.8 µM (inactive) | 39.6 µM (inactive) | > 92 µM (inactive) | 70.5 µM (inactive) | 10.7 µM (inactive) | 15 µM (inactive) | 15.1 µM (inactive) | 4.72 µM (inactive) | 18.7 µM (inactive) | 23.9 µM (inactive) | 13.4 | 6.73 µM (inactive) | 20 µM (inactive) | 0.887 µM (active) | 19.3 µM (inactive) | 67.1 µM (inactive) | 7.8 µM (inactive) | 11 µM (inactive) | > 50 µM (inactive)
